This passage reports inhibition and IC50 results from PMC5751305, “In Silico Screening and In Vitro Activity Measurement of Javamide Analogues as Potential p38 MAPK Inhibitors” (International Journal of Molecular Sciences, 2017).

Common to all, as to assay type: biochemical
Experiment [1] has as its target T1, p38 α (Homo sapiens, UniProt Q16539).
T1 construct: gene MAPK14
The experiment can be described thus: ADP-Glo kinase assay (Promega CMGC-1), % inhibition at […]. (ADP-Glo first removes unused ATP, then detects ADP through luciferase.)

Experiment [2] concerns the target T1, p38 α. The experiment can be described thus: ADP-Glo kinase assay (Promega CMGC-1 kinase selectivity profiling system), dose response […].
In experiment [3] the target is T1, p38 α. Put plainly: ADP-Glo kinase assay (Promega CMGC-1 kinase selectivity profiling system).

T1 sequence (Q16539 2-360): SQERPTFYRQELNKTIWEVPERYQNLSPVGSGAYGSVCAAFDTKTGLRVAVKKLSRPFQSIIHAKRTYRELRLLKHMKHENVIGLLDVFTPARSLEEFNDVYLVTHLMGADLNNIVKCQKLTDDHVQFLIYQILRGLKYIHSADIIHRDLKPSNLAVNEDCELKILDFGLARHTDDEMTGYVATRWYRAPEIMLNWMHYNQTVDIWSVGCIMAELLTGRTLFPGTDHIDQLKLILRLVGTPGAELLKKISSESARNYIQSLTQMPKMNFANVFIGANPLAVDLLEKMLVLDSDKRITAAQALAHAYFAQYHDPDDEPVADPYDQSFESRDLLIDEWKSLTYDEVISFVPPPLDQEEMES

Usually inhibition stands for the share of the control response that was lost under treatment. Low readings indicate little suppression, high ones strong suppression. `O=C(/C=C/c1ccc(O)c(O)c1)N[C@@H](Cc1c[nH]c2ccccc12)C(=O)O` [Javamide-II, javamide-II] had an inhibition at 5 µM against p38 α [1] of 31.5%. The IC50 is the midpoint of a concentration-inhibition curve. Low readings indicate greater potency, high ones weaker potency. For the compound `CCOC(=O)[C@H](Cc1c[nH]c2ccccc12)NC(=O)/C=C/c1ccc(O)c(O)c1` [Javamide-II-ethyl, javamide-II-O-ethyl ester], it took 9.9 µM to reach half-maximal inhibition against p38 α [2] (IC50). At p38 α [3], `COC(=O)[C@H](Cc1c[nH]c2ccccc12)NC(=O)/C=C/c1ccc(O)c(O)c1` [Javamide-II-methyl, Methyl (E)-(3-(3,4-dihydroxyphenyl)acryloyl) tryptophanate] registered an IC50 of 12 µM.
